# Experimental data taken from patent US6635234B1, “Preparation and use of radium-223 to target calcified tissues for pain palliation, bone cancer therapy, and bone surface conditioning” (Anticancer Therapeutic Inventions AS, priority 1999, dated 2003).
# Several values for one entry are separate records, joined by “and”; a condition that tells them apart may be missing. Identical values can stand only once.
# Columns and labels:
# [1] = system: MT-1 human breast cancer cells; settings: treatment seven days after tumour cell inoculation; cited from earlier work
# [2] = Gamma spectroscopy of the 211Bi:223Ra ratio in tissues versus a standard solution; type: in vivo, Balb/C mice
# Experimental: (§1) Methods: Young male Balb/C mice with a body weight of 19-21 g were injected with 9 kBq of ^223Ra in 150 μl of isotonic saline. Groups of five animals were sacrificed and dissected at 6 h and 3 days after injection. Sample weight was measured and samples were counted using (A) a “well type” NaI scintillation crystal (Harshaw Chemie BV, De Meern, Holland) combined with a Scaler Timer ST7 (NE Technology Ltd, Reading, UK) digital unit, (B) a Beckman LS 6500 (Beckman Instruments Inc. Fullerton, Calif., USA). Relative abundances of radionuclides were studied in blood, liver, kidney, and in standard samples with mother/daughter in equilibrium, using a Ge-detector (Canberra, Meriden, Conn., USA) combined with an amplifier and bias supply from EG&G Ortec (Oak Ridge, Tenn., USA).
# The ratio of ^211Bi: ^223Ra was in the spleen at the 6 hour point on average 54% compared to a standard solution. In liver and kidneys on the other hand, the ^211Bi: ^223Ra ratios in the samples were on the average 256 and 207% of the standards respectively. […] Also the ^211Bi activity in soft tissues was in general very low compared to bone activity of this nuclide. The ^211Bi in the soft tissues may have been generated from ^223Ra present in soft tissues.
# [3] = Localization Index (211Bi vs 223Ra retention) in femur by gamma spectroscopy; type: in vivo, mice; settings: average
# Experimental: To examine if there was a difference in radioisotope retention between radium-223 and bismuth-211 in bone samples, gamma spectroscopic data for bone versus a standard solution with ^223Ra and daughter radionuclides in equilibrium was studied.
# Methods: Gamma spectroscopy with a germanium detector (Canberra, Meriden, Conn., USA) was performed on samples of femur from mice immediately after sacrificing and dissecting the animals. Samples of a standard solution of ^223Ra and daughter radionuclides in equilibrium were studied. The distinct gamma peaks at 351.0 keV (^211Bi) and 154.2 keV (^223Ra) were used. A Localization Index (LI) was determined as follows:
# E.g., BBi−^211Bi count rate in bone; SRa−^223Ra count rate in standard
# Gamma spectra from five samples from the 6 h group and the 3 days group respectively were compared, to five and three samples from the standard solution respectively, using Student t-test for data columns.
# [4] = Release of daughter isotopes from fragmented femur washed with PBS; type: in vivo, mice
# Experimental: To study potential release of daughter isotopes after ^223Ra was incorporated in bone, due to either nuclear recoil or diffusion processes, femurs from five animals killed 6 h, and 5 animals killed 3 days after injection were examined.
# Methods: The bones were cleaved longitudinally, to expose the red marrow (spongious) areas, and thereafter cut into small fragments of less than 3 mg. Thereafter the samples were washed with Dulbeccos PBS (Sigma-Aldrich CO. LTD., Irvine, UK) using centrifugation. The supernatant was removed, mixed with scintillation liquid (Insta-Gel 11 plus, Packard BioScience BV, Groningen, The Netherlands) and counted on a scintillation counter (Beckman Instruments Inc. Fullerton, Calif., USA). After one day sample counting was repeated. A difference in counts after correcting for ^223Ra decay between the two measurements was used as indication of release of daughter nuclide(s) from bone matrix.
# [5] = system: MT-1 human breast cancer cells; assay: MT-1/nude rat model of skeletal metastases; type: in vivo, nude rats
# Text: It has been developed animal models with experimental metastasis pattern resembling those frequently observed in human patients (Engebraaten and Fodstad, 1999). One of these models consists of MT-1 cells injected intracardially into nude rats and is characterized by the consistent development of hind leg paralysis in the animals.
# Method: The therapeutic potential of radium-223 was studied in the MT-1/nude rat model where animals were inoculated with 1×10^6 MT-1 human breast cancer cells by injection into the left ventricle of the heart as described (Engebraaten and Fodstad,. 1999). These animals usually develop paralysis caused by growth of tumours in the spine. Groups of 4 and 5 animals each were then treated seven days later by receiving an intravenous injection of 200 μl of a vehicle solution without or with 10 kBq of radium-223 according to the invention.
# [6] = Biodistribution of radium-223 in Balb/C mice; type: in vivo; settings: for % of injected dose per gram, femur: 9 kBq in isotonic saline
# Experimental: as §1
# [7] = bone samples; after radium-226 had been administered to dogs; cited from earlier work
structure (smiles),measurement,setting,value
COc1cccc2c1C(=O)c1c(O)c3c(c(O)c1C2=O)C[C@@](O)(C(=O)CO)C[C@@H]3O[C@H]1C[C@H](N)[C@H](O)[C@H](C)O1 [doxorubicin],Effect on survival,[1],did not improve survival
[223Ra] [radium-223],Difference in relative distribution of radium-223 and its daughters (abundance of 211Bi),"[2]; bone and most soft tissues, gamma spectroscopy",no significant difference
same,"Ratio of 211Bi:223Ra, % of the standards","[2]; kidneys, average",207%
same,"Ratio of 211Bi:223Ra, % of the standards","[2]; liver, average",256%
same,Ratio of 211Bi:223Ra compared to a standard solution,"[2]; spleen, 6 hour point, average",54%
same,Localization Index LI=(BBi/SBi)/(BRa/SRa),"[3]; 6 h point, P=0.059",0.85
same,Localization Index LI=(BBi/SBi)/(BRa/SRa),"[3]; 3 day point, P=0.749",0.97
same,"Activity dissolved in PBS during washing, compared to the total activity in bone","[4]; animals killed after 6 hours, average",1.8%
same,Translocation of daughter isotopes from bone,"[4]; animals killed after 6 hours, probably",less than 2%
same,"Activity of washing solutions counted again, of the bone sample","[4]; animals killed after 6 hours, recounted after 12 h, average",0.2%
same,Counts in the washing solution compared to the background,[4]; animals killed after 3 days,no significant counts
same,"Translocation, below detection limit, of the total bone radioactivity","[4]; animals killed after 3 days, estimated detection limit",less than 1%
same,Anti-tumour effect in animals with skeletal metastases,[5]; 10 kBq i.v.,significant anti-tumour effect
same,Time to paralysis after tumour cell inoculation (individual animals),"[5]; 10 kBq i.v. seven days after inoculation, group of five animals, listed as 223Ra",26 days and 40 days and 64 days
same,"Survival without signs of paralysis, two remaining animals (follow-up period)","[5]; 10 kBq i.v. seven days after inoculation, two of five animals",≥ 90 days
same,Femur to blood ratio,[6]; 6 h after injection,129
same,Femur to spleen ratio,[6]; 6 h after injection,6.4
same,Concentration in bone compared to soft tissues,[6]; 6 h and 3 days,selectively concentrated in bone
same,Femur to blood ratio,[6]; 3 days after injection,691
same,Femur to spleen ratio,[6]; 3 days after injection,23.7
same,"% of injected dose per gram, blood",[6]; 6 hours,0.20 ± 0.23 % of injected dose per gram
same,"% of injected dose per gram, blood",[6]; 3 days,0.05 ± 0.10 % of injected dose per gram
same,"% of injected dose per gram, brain",[6]; 6 hours,0.04 ± 0.01 % of injected dose per gram
same,"% of injected dose per gram, brain",[6]; 3 days,0.12 ± 0.12 % of injected dose per gram
same,"% of injected dose per gram, femur",[6]; 6 hours after injection,25.86 ± 1.99 % of injected dose per gram
same,"% of injected dose per gram, femur",[6]; 3 days after injection,34.55 ± 7.87 % of injected dose per gram
same,"% of injected dose per gram, heart",[6]; 6 hours,0.10 ± 0.10 % of injected dose per gram
same,"% of injected dose per gram, heart",[6]; 3 days,0.06 ± 0.07 % of injected dose per gram
same,"% of injected dose per gram, kidney",[6]; 6 hours,4.04 ± 0.33 % of injected dose per gram
same,"% of injected dose per gram, kidney",[6]; 3 days,0.38 ± 0.08 % of injected dose per gram
same,"% of injected dose per gram, large intestine",[6]; 6 hours,2.30 ± 0.60 % of injected dose per gram
same,"% of injected dose per gram, large intestine",[6]; 3 days,0.13 ± 0.02 % of injected dose per gram
same,"% of injected dose per gram, liver",[6]; 6 hours,0.89 ± 0.18 % of injected dose per gram
same,"% of injected dose per gram, liver",[6]; 3 days,0.22 ± 0.32 % of injected dose per gram
same,"% of injected dose per gram, lung",[6]; 6 hours,0.59 ± 0.56 % of injected dose per gram
same,"% of injected dose per gram, lung",[6]; 3 days,0.06 ± 0.07 % of injected dose per gram
same,"% of injected dose per gram, muscle",[6]; 6 hours,0.72 ± 0.39 % of injected dose per gram
same,"% of injected dose per gram, muscle",[6]; 3 days,0.30 ± 0.16 % of injected dose per gram
same,"% of injected dose per gram, small intestine",[6]; 6 hours,0.79 ± 0.26 % of injected dose per gram
same,"% of injected dose per gram, small intestine",[6]; 3 days,0.04 ± 0.03 % of injected dose per gram
same,"% of injected dose per gram, spleen",[6]; 6 hours,4.06 ± 1.4 % of injected dose per gram
same,"% of injected dose per gram, spleen",[6]; 3 days,1.46 ± 0.54 % of injected dose per gram
N.N.[Cl][Pt][Cl] [cisplatin],Effect on survival,[1],did not improve survival
[226Ra] [radium-226],Radon-222 escaped from the bone,[7],89.5-94.25%
